Data taken from the NIST ThermoML archive (doi:10.1021/je300945r).

F/C=C/C(F)(F)F [trans-1,3,3,3-tetrafluoropropene]
Details | mass density [kg/m3]
302.78 K, 433.9 kPa, Gas, isochoric method | 22.222
303.13 K, 802 kPa, Liquid, Vibrating tube method | 1145.9
303.13 K, 1676 kPa, Liquid, Vibrating tube method | 1151.1
303.13 K, 4747 kPa, Liquid, Vibrating tube method | 1167.3
303.13 K, 7769 kPa, Liquid, Vibrating tube method | 1181.3
303.13 K, 8772 kPa, Liquid, Vibrating tube method | 1185.8
303.14 K, 2678 kPa, Liquid, Vibrating tube method | 1156.8
303.14 K, 3716 kPa, Liquid, Vibrating tube method | 1162.3
303.14 K, 5757 kPa, Liquid, Vibrating tube method | 1172.2
303.14 K, 6764 kPa, Liquid, Vibrating tube method | 1176.9
303.14 K, 9773 kPa, Liquid, Vibrating tube method | 1190
303.14 K, 10775 kPa, Liquid, Vibrating tube method | 1194.1
303.14 K, 11778 kPa, Liquid, Vibrating tube method | 1197.9
303.14 K, 12794 kPa, Liquid, Vibrating tube method | 1201.7
303.14 K, 13809 kPa, Liquid, Vibrating tube method | 1205.3
303.14 K, 14819 kPa, Liquid, Vibrating tube method | 1209.1
303.14 K, 15824 kPa, Liquid, Vibrating tube method | 1212.5
303.14 K, 16838 kPa, Liquid, Vibrating tube method | 1216
303.14 K, 17845 kPa, Liquid, Vibrating tube method | 1219.4
303.14 K, 18856 kPa, Liquid, Vibrating tube method | 1222.6
303.14 K, 19875 kPa, Liquid, Vibrating tube method | 1225.8
303.14 K, 20888 kPa, Liquid, Vibrating tube method | 1228.8
303.14 K, 21899 kPa, Liquid, Vibrating tube method | 1232
303.14 K, 22909 kPa, Liquid, Vibrating tube method | 1234.9
303.14 K, 23916 kPa, Liquid, Vibrating tube method | 1238
303.14 K, 24920 kPa, Liquid, Vibrating tube method | 1240.8
303.14 K, 25928 kPa, Liquid, Vibrating tube method | 1243.5
303.14 K, 26942 kPa, Liquid, Vibrating tube method | 1246.4
303.14 K, 27943 kPa, Liquid, Vibrating tube method | 1249.1
303.14 K, 28955 kPa, Liquid, Vibrating tube method | 1251.6
303.14 K, 29958 kPa, Liquid, Vibrating tube method | 1254.5
303.14 K, 30966 kPa, Liquid, Vibrating tube method | 1256.7
303.15 K, 31972 kPa, Liquid, Vibrating tube method | 1259.5
303.15 K, 32984 kPa, Liquid, Vibrating tube method | 1262
303.15 K, 33993 kPa, Liquid, Vibrating tube method | 1264.4
312.59 K, 574.7 kPa, Gas, isochoric method | 28.571
312.6 K, 574.7 kPa, Gas, isochoric method | 28.571
312.61 K, 397.1 kPa, Gas, isochoric method | 19.231
312.61 K, 397.2 kPa, Gas, isochoric method | 19.231
312.72 K, 168.6 kPa, Gas, isochoric method | 7.634
312.76 K, 451.9 kPa, Gas, isochoric method | 21.739
312.76 K, 452 kPa, Gas, isochoric method | 21.739
312.8 K, 74.3 kPa, Gas, isochoric method | 3.311
312.84 K, 268.5 kPa, Gas, isochoric method | 12.5
313.13 K, 630.3 kPa, Gas, isochoric method | 32.258
313.13 K, 630.4 kPa, Gas, isochoric method | 32.258
313.14 K, 775 kPa, Liquid, Vibrating tube method | 1109.9
313.14 K, 1656 kPa, Liquid, Vibrating tube method | 1116.2
313.14 K, 2657 kPa, Liquid, Vibrating tube method | 1122.9
313.14 K, 3683 kPa, Liquid, Vibrating tube method | 1129.4
313.14 K, 5739 kPa, Liquid, Vibrating tube method | 1141.4
313.14 K, 6749 kPa, Liquid, Vibrating tube method | 1146.8
313.14 K, 7763 kPa, Liquid, Vibrating tube method | 1152.1
313.14 K, 8784 kPa, Liquid, Vibrating tube method | 1157.1
313.14 K, 9798 kPa, Liquid, Vibrating tube method | 1161.9
313.14 K, 10800 kPa, Liquid, Vibrating tube method | 1166.5
313.14 K, 11816 kPa, Liquid, Vibrating tube method | 1170.9
313.14 K, 12819 kPa, Liquid, Vibrating tube method | 1175.2
313.14 K, 13831 kPa, Liquid, Vibrating tube method | 1179.3
313.14 K, 14845 kPa, Liquid, Vibrating tube method | 1183.4
313.14 K, 15848 kPa, Liquid, Vibrating tube method | 1187.2
313.14 K, 16855 kPa, Liquid, Vibrating tube method | 1191.1
313.14 K, 18874 kPa, Liquid, Vibrating tube method | 1198.3
313.14 K, 19890 kPa, Liquid, Vibrating tube method | 1201.9
313.14 K, 20909 kPa, Liquid, Vibrating tube method | 1205.3
313.14 K, 21923 kPa, Liquid, Vibrating tube method | 1208.7
313.14 K, 22937 kPa, Liquid, Vibrating tube method | 1212
313.14 K, 23947 kPa, Liquid, Vibrating tube method | 1215.2
313.14 K, 25962 kPa, Liquid, Vibrating tube method | 1221.3
313.14 K, 26971 kPa, Liquid, Vibrating tube method | 1224.3
313.14 K, 28984 kPa, Liquid, Vibrating tube method | 1230.1
313.15 K, 4723 kPa, Liquid, Vibrating tube method | 1135.7
313.15 K, 17865 kPa, Liquid, Vibrating tube method | 1194.7
313.15 K, 24948 kPa, Liquid, Vibrating tube method | 1218.2
313.15 K, 27973 kPa, Liquid, Vibrating tube method | 1227.2
313.15 K, 30002 kPa, Liquid, Vibrating tube method | 1232.9
313.15 K, 31006 kPa, Liquid, Vibrating tube method | 1235.7
313.15 K, 32010 kPa, Liquid, Vibrating tube method | 1238.4
313.15 K, 33010 kPa, Liquid, Vibrating tube method | 1241
313.15 K, 34013 kPa, Liquid, Vibrating tube method | 1243.6
323.1 K, 76.8 kPa, Gas, isochoric method | 3.311
323.1 K, 278.4 kPa, Gas, isochoric method | 12.346
323.1 K, 470.5 kPa, Gas, isochoric method | 21.739
323.11 K, 174.6 kPa, Gas, isochoric method | 7.634
323.11 K, 413.3 kPa, Gas, isochoric method | 19.231
323.11 K, 413.4 kPa, Gas, isochoric method | 19.231
323.11 K, 658.4 kPa, Gas, isochoric method | 32.258
323.12 K, 836.8 kPa, Gas, isochoric method | 43.478
323.14 K, 1009 kPa, Liquid, Vibrating tube method | 1071.8
323.14 K, 1595 kPa, Liquid, Vibrating tube method | 1077.1
323.14 K, 2609 kPa, Liquid, Vibrating tube method | 1085.6
323.14 K, 3638 kPa, Liquid, Vibrating tube method | 1093.6
323.14 K, 4686 kPa, Liquid, Vibrating tube method | 1101.1
323.14 K, 5705 kPa, Liquid, Vibrating tube method | 1108
323.14 K, 6730 kPa, Liquid, Vibrating tube method | 1114.5
323.14 K, 7748 kPa, Liquid, Vibrating tube method | 1120.7
